The nature of this data set: Chemical stability of the compound at pH 7 after 30 days. It is filed as physicochemical. Particulars: buffer, pH 7, 720 h.

`C[C@@H](c1ncncc1F)[C@](O)(Cn1cncn1)c1ccc(F)cc1F` [VORICONAZOLE]: the Stability result is given as “Stable”.
